Assay results taken from patent US20250186321A1, “FORMULATION USING AMINO ACID AND CARBOXYLIC ACID, ORGANIC SALT, AND COMPOSITION COMPRISING SAME AND USE THEREOF” (MIYOSHI OIL & FAT CO., LTD., priority 2021, published 2025).

Assays:
Format in all cases: physicochemical
[1] = Appearance of formulation (state at 25° C.)
Procedure: Formulations 1 to 427 shown in Tables 1A to 1D were prepared by the above-described method using the components (A) and (B) at the compounding molar ratios shown in the tables, and their states at 25° C. were observed.

[2] = Water retention evaluation (moisture reduction rate); settings: for Moisture eduction rate / Moisture content before test (A): 80 wt. % aqueous solution; for Moisture eduction rate: 24 hours at 35° C. and 25% RH, calculated from A and B; for Moisture content before test (A): Karl Fischer; for Presence or absence of hydrates: left until the moisture content remained unchanged, based on final moisture content; for n-hydrate: number of hydrated water based on final moisture content
Procedure: 80 wt. % aqueous solutions of the formulations (organic salts) of the working examples 428 to 459 and comparative examples 1 to 5 in Tables 2A and 2B were prepared, and the water contents were measured using a Karl Fischer moisture meter (CA-200 manufactured by Mitsubishi Chemical Analytech Co., Ltd.). It was confirmed that the water contents of them were 20.0 wt. % (moisture content before test: A). Each of the 1.0 g samples was added to a screw tube, and left uncovered to stand still for 24 hours in a constant temperature and humidity bath (KCL-2000W manufactured by Tokyo Rikakikai Co., Ltd.) which was set at 35° C. and 25% RH. Moisture contents after being left for 24 hours were measured again (moisture content after test: B) to evaluate their water retention property by using the following formula for calculating the moisture reduction rates. After that, it was left to stand still until the moisture content remained unchanged, and determinations of the hydrate and the number of hydrated water were made based on the final moisture contents. • Moisture content before test: A (%) • Moisture content after test: B (%)

[3] = Appearance of formulation (state at 25° C.); settings: formulation at the compounding molar ratio listed
[4] = Hygroscopicity evaluation (moisture content); settings: for Hygroscopicity test Moisture content after test: dried in vacuum at 60° C. for 18 hours, then 1 month at room temperature, Karl Fischer; for Presence or absence of hydrates / n-hydrate: hygroscopicity test, Table 3
Procedure: The working examples 460 to 470 and the comparative example 6 in Table 3 were completely dried in a vacuum dryer at 60° C. for 18 hours, and then left to stand still at room temperature for 1 month whose moisture contents were then measured using a Karl Fischer moisture meter (CA-200 manufactured by Mitsubishi Chemical Analytech Co., Ltd.) to evaluate their hygroscopicity.

[5] = 25° C., components (A) and (B) at the compounding molar ratio shown
[6] = Tables 1C-1 to 1D, compounding molar ratio (Component (A):Component (B)) 1:1

Row | SMILES | state at 25° C. [1, 5] | Moisture eduction rate [2] | Moisture content before test (A) [2] | Presence or absence of hydrates [2] | state at 25° C. ([3]; Tables 2A/2B) | n-hydrate [2] | state at 25° C. [1, 6] | other results
1 | CCCCCC(=O)O.NCCCC[C@H](N)C(=O)O [Formulation 4] | Solid | 60.2% | 20.0% | Absent | Solid |  |  | 
2 | CCCCCCCC/C=C\CCCCCCCC(=O)O.NCCCC[C@H](N)C(=O)O [Formulation 7] | Solid |  |  |  |  |  |  | Hygroscopicity test Moisture content after test [4]: 2.1%; Presence or absence of hydrates [4]: Present; n-hydrate [4]: Multihydrate; state at 25° C. ([3]; Table 3): Solid
3 | NCCCC[C@H](N)C(=O)O.O=C(O)[C@H](O)[C@@H](O)[C@H](O)[C@H](O)CO [Formulation 9] | Liquid | 22.9% | 20.0% | Present | Liquid | Dihydrate |  | state at 25° C. ([1]; 25° C., components (A) and (B) at the compounding molar ratio shown, listed as Working example 9): liquid
4 | NCCCC[C@H](N)C(=O)O.O=C(O)[C@H](O)[C@@H](O)[C@H](O)[C@H](O)CO.O=C(O)[C@H](O)[C@@H](O)[C@H](O)[C@H](O)CO [Formulation 30] | Liquid | 42.7% | 20.0% | Present | Liquid |  |  | state at 25° C. ([1]; 25° C., components (A) and (B) at the compounding molar ratio shown, listed as Working example 30): liquid
5 | NCCCC[C@H](N)C(=O)O.NCCCC[C@H](N)C(=O)O.NCCCC[C@H](N)C(=O)O.O=C(O)CC(O)(CC(=O)O)C(=O)O.O=C(O)CC(O)(CC(=O)O)C(=O)O [Formulation 37] | Liquid | 22.4% | 20.0% | Present | Liquid | Dihydrate |  | state at 25° C. ([1]; 25° C., components (A) and (B) at the compounding molar ratio shown, listed as Working example 37): liquid
6 | N=C(N)NCCC[C@H](N)C(=O)O.O=C(O)[C@H](O)[C@@H](O)[C@H](O)[C@H](O)CO [Formulation 51] | Liquid | 23.7% | 20.0% | Present | Liquid | Mono- |  | 
7 | CC(O)C(=O)O.N=C(N)NCCC[C@H](N)C(=O)O [Formulation 52] | Liquid | 24.3% | 20.0% | Present | Liquid | Mono- |  | 
8 | N=C(N)NCCC[C@H](N)C(=O)O.O=C(O)CC(O)(CC(=O)O)C(=O)O [Formulation 58] | Liquid | 21.8% | 20.0% | Present | Liquid |  |  | 
9 | CCCCCCCC/C=C\CCCCCCCC(=O)O.CCCCCCCC/C=C\CCCCCCCC(=O)O.N=C(N)NCCC[C@H](N)C(=O)O [Formulation 70] | Liquid |  |  |  |  |  |  | Hygroscopicity test Moisture content after test [4]: 9.4%; Presence or absence of hydrates [4]: Present; n-hydrate [4]: Multihydrate; state at 25° C. ([3]; Table 3): Liquid
10 | N[C@@H](Cc1c[nH]cn1)C(=O)O.O=C(O)[C@H](O)[C@@H](O)[C@H](O)[C@H](O)CO [Formulation 93] | Liquid | 20.4% | 20.0% | Present | Liquid |  |  | state at 25° C. ([1]; 25° C., components (A) and (B) at the compounding molar ratio shown, listed as Working example 93): liquid
11 | NCC(=O)O.O=C(O)CC(O)(CC(=O)O)C(=O)O [Formulation 142] | Liquid | 32.2% | 20.0% | Present | Liquid | Hemi- |  | state at 25° C. ([1]; 25° C., components (A) and (B) at the compounding molar ratio shown, listed as Working example 142): liquid
12 | NCCCC(=O)O.O=C(O)[C@H](O)[C@@H](O)[C@H](O)[C@H](O)CO [Formulation 175] | Liquid | 36.7% | 20.0% | Present | Liquid | Mono- |  | state at 25° C. ([1]; 25° C., components (A) and (B) at the compounding molar ratio shown, listed as Working example 175): liquid
13 | N[C@@H](CO)C(=O)O.O=C(O)[C@H](O)[C@@H](O)[C@H](O)[C@H](O)CO [Formulation 243] | Liquid | 41.6% | 20.0% | Present | Liquid | Mono- |  | state at 25° C. ([1]; 25° C., components (A) and (B) at the compounding molar ratio shown, listed as Working example 243): liquid
14 | CC(=O)O.N[C@@H](CCC(=O)O)C(=O)O [Formulation 412] |  |  |  |  |  |  | Solid | 
15 | CCC(=O)O.N[C@@H](CCC(=O)O)C(=O)O [Formulation 413] |  |  |  |  |  |  | Solid | 
16 | CCCCCC(=O)O.N[C@@H](CCC(=O)O)C(=O)O [Formulation 414] |  |  |  |  |  |  | Solid | 
17 | CCCC(=O)O.N[C@@H](CCC(=O)O)C(=O)O [Formulation 415] |  |  |  |  |  |  | Solid | 
18 | N[C@@H](CCC(=O)O)C(=O)O.O=C(O)C(O)C(O)C(O)C(O)CO (stereo not shown) [Formulation 416] |  |  |  |  |  |  | Solid | 
19 | CC(O)C(=O)O.N[C@@H](CCC(=O)O)C(=O)O [Formulation 417] |  |  |  |  |  |  | Solid | 
